Source: ChEMBL document CHEMBL1122819, “Quinazoline antifolates inhibiting thymidylate synthase: variation of the N10 substituent” (J Med Chem, 1985)
pIC50: −log10 of the molar value.

system: L1210; assay: (§1) Growth inhibition was evaluated for L1210 cells in culture; assay type: functional; details: Mus musculus, read-out: ID50 (the source's name)

Row | SMILES | pIC50
1 | Nc1nc(O)c2cc(CN(Cc3cccc(F)c3)c3ccc(C(=O)NC(CCC(=O)O)C(=O)O)cc3)ccc2n1 (stereo not given) | < 3.70
2 | Nc1nc(O)c2cc(CN(CC(=O)c3ccccc3)c3ccc(C(=O)NC(CCC(=O)O)C(=O)O)cc3)ccc2n1 (stereo not given) | 4.00
3 | N#CCCCN(Cc1ccc2nc(N)nc(O)c2c1)c1ccc(C(=O)NC(CCC(=O)O)C(=O)O)cc1 (stereo not given) | < 3.52
4 | Nc1nc(O)c2cc(CN(CC3CC3)c3ccc(C(=O)NC(CCC(=O)O)C(=O)O)cc3)ccc2n1 (stereo not given) | < 4.00
5 | CC(C)N(Cc1ccc2nc(N)nc(O)c2c1)c1ccc(C(=O)NC(CCC(=O)O)C(=O)O)cc1 (stereo not given) | 3.40
6 | Nc1nc(O)c2cc(CN(CCCO)c3ccc(C(=O)NC(CCC(=O)O)C(=O)O)cc3)ccc2n1 (stereo not given) | 4.27
7 | NC(=O)CN(Cc1ccc2nc(N)nc(O)c2c1)c1ccc(C(=O)NC(CCC(=O)O)C(=O)O)cc1 (stereo not given) | 4.06
8 | Nc1nc(O)c2cc(CN(CCC(=O)O)c3ccc(C(=O)NC(CCC(=O)O)C(=O)O)cc3)ccc2n1 (stereo not given) | < 3.57

These reach a higher pIC50. Values come first.

Row | pIC50 | SMILES
9 | 4.57 | Nc1nc(O)c2cc(CN(CC(=O)O)c3ccc(C(=O)NC(CCC(=O)O)C(=O)O)cc3)ccc2n1 (stereo not given)
10 | 5.30 | Nc1nc(O)c2cc(CN(Cc3cnc(O)nc3O)c3ccc(C(=O)NC(CCC(=O)O)C(=O)O)cc3)ccc2n1 (stereo not given)
11 | 4.80 | Nc1nc(O)c2cc(CN(CCF)c3ccc(C(=O)NC(CCC(=O)O)C(=O)O)cc3)ccc2n1 (stereo not given)
12 | 5.30 | N#CCN(Cc1ccc2nc(N)nc(O)c2c1)c1ccc(C(=O)NC(CCC(=O)O)C(=O)O)cc1 (stereo not given)
13 | 5.30 | C#CCN(Cc1ccc2[nH]c(N)nc(=O)c2c1)c1ccc(C(=O)NC(CCC(=O)O)C(=O)O)cc1 (stereo not given)
14 | 5.30 | Nc1nc(O)c2cc(CNc3ccc(C(=O)NC(CCC(=O)O)C(=O)O)cc3)ccc2n1 (stereo not given) [DIDEAZAFOLATE]

system: L1210; assay: as §1; assay type: functional, Mus musculus; details: not given

Row | SMILES | Inhibition
15 | N#CCCCN(Cc1ccc2nc(N)nc(O)c2c1)c1ccc(C(=O)NC(CCC(=O)O)C(=O)O)cc1 (stereo not given) | 10%
